Assay results reported in PubChem BioAssay (NCI).
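Each compound was tested at five concentrations against cells in 96-well plates for 48 hours. GI50: concentration for 50% inhibition of growth. The concentration for full growth arrest is given as TGI.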

Legend:
Assay in all cases: NCI tumour cell line growth inhibition, 48 h
PC-3 prostate = test system: PC-3 prostate
DU-145 prostate = test system: DU-145 prostate
U251 CNS = test system: U251 CNS
LOX IMVI melanoma = test system: LOX IMVI melanoma
NCI-H460 lung = test system: NCI-H460 lung
HOP-62 NSCLC = test system: HOP-62 NSCLC
SNB-78 CNS = test system: SNB-78 CNS
DMS 273 small cell lung = test system: DMS 273 small cell lung
A498 renal = test system: A498 renal
HT29 colon = test system: HT29 colon
P388 leukemia = test system: P388 leukemia
SW-620 colon = test system: SW-620 colon
DLD-1 colon = test system: DLD-1 colon
K-562 leukemia = test system: K-562 leukemia
OVCAR-4 ovarian = test system: OVCAR-4 ovarian
DMS 114 small cell lung = test system: DMS 114 small cell lung
SN12K1 renal = test system: SN12K1 renal

Row | Compound | GI50 (PC-3 prostate) [nM] | TGI (PC-3 prostate) [µM] | GI50 (DU-145 prostate) [nM] | TGI (DU-145 prostate) [µM] | TGI (U251 CNS) [µM] | TGI (LOX IMVI melanoma) [µM] | TGI (NCI-H460 lung) [µM] | TGI (HOP-62 NSCLC) [µM] | TGI (SNB-78 CNS) [µM] | TGI (DMS 273 small cell lung) [µM] | TGI (A498 renal) [µM] | TGI (HT29 colon) [µM] | TGI (P388 leukemia) [µM] | TGI (SW-620 colon) [µM] | TGI (DLD-1 colon) [µM] | TGI (K-562 leukemia) [µM] | TGI (OVCAR-4 ovarian) [µM] | TGI (DMS 114 small cell lung) [µM] | TGI (SN12K1 renal) [µM]
1 | COc1cc(/C=C2\CN(S(=O)(=O)c3ccc(C)cc3)C/C(=C\c3cc(CN4CCCCC4)c(O)c(OC)c3)C2=O)cc(CN2CCCCC2)c1O | 1870 | 4.75 | 1850 | 3.53 |  |  |  |  |  |  |  |  |  |  |  |  |  |  | 
2 | NC(Cc1c[nH]c2ccccc12)C(=O)O (centres undefined) |  |  |  |  | > 300 | > 300 | > 300 | > 300 | > 300 | > 300 | > 13.9 | > 300 | > 300 | > 300 | > 300 | > 189 | > 300 | > 300 | > 300
